According to PMC6474360 (Biochemistry, 2018):

Columns and labels:
Type in all cases: binding
[1] = target: sperm whale myoglobin (ferric Mb^III), H64A mutant (Physeter macrocephalus, UniProt P02185, D123N/H65A); test: X-ray crystal structure
[2] = target: sperm whale myoglobin (ferrous Mb^II), V68A/I107Y mutant (Physeter macrocephalus, UniProt P02185, D123N/I108Y/V69A); test: UV-vis titration
[3] = target: sperm whale myoglobin (ferrous Mb^II), H64Q mutant (Physeter macrocephalus, UniProt P02185, D123N/H65Q); test: UV-vis titration
[4] = target: sperm whale myoglobin (ferric Mb^III), wild-type (Physeter macrocephalus, UniProt P02185, D123N); test: UV-vis titration
Chain of sperm whale myoglobin (ferric Mb^III), wild-type (P02185 whole entry D123N): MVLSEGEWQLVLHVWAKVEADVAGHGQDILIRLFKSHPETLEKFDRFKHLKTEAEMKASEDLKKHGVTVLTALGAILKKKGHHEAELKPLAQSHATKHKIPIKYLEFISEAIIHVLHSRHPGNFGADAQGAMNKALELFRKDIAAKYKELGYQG

Chain of sperm whale myoglobin (ferrous Mb^II), H64Q mutant (P02185 whole entry H65Q/D123N): as the sequence (P02185 whole entry D123N) above, with H65Q counted along it
Chain of sperm whale myoglobin (ferrous Mb^II), V68A/I107Y mutant (P02185 whole entry V69A/I108Y/D123N): as the sequence (P02185 whole entry D123N) above, with V69A, I108Y counted along it
Chain of sperm whale myoglobin (ferric Mb^III), H64A mutant (P02185 whole entry H65A/D123N): as the sequence (P02185 whole entry D123N) above, with H65A counted along it

O=NO [nitrite]
Kd [1]: > 20 mM
Kd [2]: 19.4 ± 0.6 mM
Kd [3]: 1.45 ± 0.3 mM
Kd [4]: 12.2 ± 2.2 mM
